Test results reported in patent US9302967B2, “Substituted cathechols as inhibitors of IL-4 and IL-5 for the treatment of bronchial asthma” (Council of Scientific & Industrial Research, priority 2011, dated 2016).
pIC50: −log10 of the molar value. Like-named read-outs stand apart in the source and are kept apart here.

Legend:
IL-4 = IL-4 levels in lung homogenates by ELISA, OVA mouse model; type: in vivo, BALB/c mice; settings: for IL-4 levels in lung: 10 mg/kg vs OVA/OVA/VEH
Experimental: Mice were sensitized with 0.2 ml PBS containing 50 μg ovalbumin (OVA) (Sigma, USA) and 4 mg aluminum hydroxide in saline intraperitonially (i.p.) on days 0, 7 and 14 as shown in FIG. 1. Sham group mice were sensitized with only alum dissolved in PBS. From day 18 to 27, mice were exposed to aerosol of OVA (3%) inhalation 25 minutes daily in a Plexiglas chamber (20×20×10 cm^3). The aerosol was generated by a nebulizer (OMRON CX model) with an airflow rate of 9 L/minute. Sham group mice were challenged with PBS alone.
Compound 1 of formula I was dissolved in 50% ethanol. So 50% ethanol was used as a vehicle. Group I was alum sensitized, saline challenged and treated with vehicle (SHAM/SAL/VEH), group II was OVA sensitized, OVA challenged and treated with 50% ethanol as vehicle (OVA/OVA/VEH), group III, IV, V, VI were OVA sensitized, OVA challenged and treated with 0.05, 0.1, 5 and 10 mg/kg compound 1 of formula I. Drug was given in the volume of 10 μl orally twice per day. Confirmatory experiments were done with two concentrations of compound 1 of formula I (5 and 10 mg/kg twice a day), and these findings were compared with parallel group of mice which were OVA-sensitized, -OVA challenged and treated orally once a day with 0.75 mg/kg Dexamethasone (OVA/OVA/DEX).
OVA-specific IgE levels in sera were measured by enzyme linked immunosorbent assay (ELISA) as described previously with little modification (Inflam. Res. 2003, 52, 101-106). Absorbance values at 450 nm were converted to arbitrary values by multiplying with 100. IL-4 levels in lung homogenates were measured by ELISA method as per manufacturer's instructions (BD Pharmingen, USA). Lung homogenates were prepared by homogenizing the lung tissue (approximately 100 mg) with 1 ml PBS followed by centrifugation at 10000 g for 30 min at 4° C. Results were expressed in pg/50 μg protein. Protein estimation was done by BCA method.

[1] = test system: oral KB carcinoma cell line; settings: cited from earlier work
IL-5 = experiment: PHA-stimulated human PBMC, IL-5 in supernatant by Cytometric Bead Array; type: cell-based; settings: PHA 10 μg/ml, read-out: IC50 inhibitory activity, stimulation-induced IL-5
Experimental: Normal human peripheral blood mononuclear cells (PBMC) were stimulated with phytohemagglutinin (PHA) 10 μg/ml in the presence and absence of varying concentrations of compounds of formula I and II. Culture supernatants were harvested and IIL-4 and IL-5 cytokines were quantitated by Cytometric Bead Array (CBA™) kit (Becton Dickinson, USA) following manufacturers instructions using a Flow Cytometer (BD LSR, Becton Dickinson) and CBA™ analysis software (Becton Dickinson).

hepatocarcinoma cells = settings: cited from earlier work

## C=CCc1ccc(O)c(O)c1 [Compound 1, 4-allyl-benzene-1,2-diol]
IL-4; 10 mg/kg
  reduction of lung IL-4 compared to DEX treated mice: approx. 65%
IL-4
  IL-4 levels in lung: a decrease in the IL-4 levels
IL-4; listed as compound of formula I
  IL-4 levels in lung: a significant reduction in the IL-4 levels
[1]
  cell cycle arrest and apoptosis: induce cell cycle arrest and apoptosis
IL-5; Homo sapiens
  pIC50: 5.35
IL-5
  pIC50: 5.30
Hepatocarcinoma cells
  cell cycle arrest and apoptosis: induce cell cycle arrest and apoptosis
